Measured values taken from the supplement of paper PMC10307832.

What was measured:
Assay in all cases: relative viability (nuclei count vs DMSO), 5 days (fraction); higher = more cells survive
NCI-H647 = system: NCI-H647
How it was run: (§1)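 Five library-drug doses in √10 steps were combined with a fixed anchor-drug dose, or a single drug was given alone, by pin tool to lung cancer cell lines in 1536-well plates the day after seeding. Nuclei were stained and counted after 5 days. Relative viability is the nuclei count in treated wells over that in vehicle wells, taken as the median of duplicate plates.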

LOU-NH91 = system: LOU-NH91
How it was run: as §1

EPLC-272H = system: EPLC-272H
How it was run: as §1

PC-14 = system: PC-14
How it was run: as §1

NCI-H3122 = system: NCI-H3122
How it was run: as §1

NCI-H1993 = system: NCI-H1993
How it was run: as §1

NCI-H520 = system: NCI-H520
How it was run: as §1

NCI-H2347 = system: NCI-H2347
How it was run: as §1

HCC-44 = system: HCC-44
How it was run: as §1

NCI-H1563 = system: NCI-H1563
How it was run: as §1

NCI-H1650 = system: NCI-H1650
How it was run: as §1

H3255 = system: H3255
How it was run: as §1

201T = system: 201T
How it was run: as §1

NCI-H2023 = system: NCI-H2023
How it was run: as §1

COR-L23 = system: COR-L23
How it was run: as §1

NCI-H441 = system: NCI-H441
How it was run: as §1

NCI-H2085 = system: NCI-H2085
How it was run: as §1

NCI-H2405 = system: NCI-H2405
How it was run: as §1

RERF-LC-KJ = system: RERF-LC-KJ
How it was run: as §1

NCI-H1734 = system: NCI-H1734
How it was run: as §1

O=C(O)c1ccc(-c2c[nH]c3ncc(-c4ccccc4)cc23)cc1C1CCCC1 + CC(C)C[C@H](NC(=O)[C@H](Cc1ccccc1)NC(=O)c1cnccn1)B(O)O [Bortezomib] (partner 0.002 µM) showed a relative viability (NCI-H647; first compound 0.04 µM) of 0.896, a relative viability (NCI-H647; first compound 0.1265 µM) of 1.19 and a relative viability (NCI-H647; first compound 0.4 µM) of 1.3. It also gave a relative viability (NCI-H647; first compound 1.265 µM) of 0.772, a relative viability (LOU-NH91; first compound 0.04 µM) of 0.484 and a relative viability (LOU-NH91; first compound 0.1265 µM) of 0.558. The relative viability (LOU-NH91; first compound 0.4 µM) was 0.449, the relative viability (LOU-NH91; first compound 1.265 µM) was 0.396 and the relative viability (EPLC-272H; first compound 0.04 µM) was 0.755. It also gave a relative viability (EPLC-272H; first compound 0.1265 µM) of 1.13, a relative viability (EPLC-272H; first compound 0.4 µM) of 0.931 and a relative viability (EPLC-272H; first compound 1.265 µM) of 1.01. The relative viability (PC-14; first compound 0.04 µM) was 0.917, the relative viability (PC-14; first compound 0.1265 µM) was 0.901 and the relative viability (PC-14; first compound 0.4 µM) was 0.891. It also gave a relative viability (PC-14; first compound 1.265 µM) of 0.758, a relative viability (NCI-H3122; first compound 0.04 µM) of 0.976 and a relative viability (NCI-H3122; first compound 0.1265 µM) of 1.01. The relative viability (NCI-H3122; first compound 0.4 µM) was 0.984, the relative viability (NCI-H3122; first compound 1.265 µM) was 0.986 and the relative viability (NCI-H1993; first compound 0.04 µM) was 1.18. The relative viability (NCI-H1993; first compound 0.4 µM) was 1.14, the relative viability (NCI-H1993; first compound 1.265 µM) was 0.871 and the relative viability (NCI-H520; first compound 0.04 µM) was 0.567. It also gave a relative viability (NCI-H520; first compound 0.1265 µM) of 0.717, a relative viability (NCI-H520; first compound 0.4 µM) of 0.482 and a relative viability (NCI-H520; first compound 1.265 µM) of 0.327. The relative viability (NCI-H2347; first compound 0.04 µM) was 1.03, the relative viability (NCI-H2347; first compound 0.1265 µM) was 1.32 and the relative viability (NCI-H2347; first compound 0.4 µM) was 0.869. It also gave a relative viability (NCI-H2347; first compound 1.265 µM) of 1.05, a relative viability (HCC-44; first compound 0.04 µM) of 0.945 and a relative viability (HCC-44; first compound 0.1265 µM) of 0.866. For the same compound, the relative viability (HCC-44; first compound 0.4 µM) was 0.886, the relative viability (HCC-44; first compound 1.265 µM) was 0.908 and the relative viability (NCI-H1563; first compound 0.04 µM) was 0.832. For the same compound, the relative viability (NCI-H1563; first compound 0.1265 µM) was 0.869, the relative viability (NCI-H1563; first compound 0.4 µM) was 0.907 and the relative viability (NCI-H1563; first compound 1.265 µM) was 0.931. The relative viability (NCI-H1650; first compound 0.04 µM) was 0.185, the relative viability (NCI-H1650; first compound 0.1265 µM) was 0.208 and the relative viability (NCI-H1650; first compound 0.4 µM) was 0.205. The relative viability (NCI-H1650; first compound 1.265 µM) was 0.178, the relative viability (H3255; first compound 0.04 µM) was 1.12 and the relative viability (H3255; first compound 0.1265 µM) was 0.972. The relative viability (H3255; first compound 0.4 µM) was 0.833, the relative viability (H3255; first compound 1.265 µM) was 0.732 and the relative viability (201T; first compound 0.04 µM) was 1.08. The relative viability (201T; first compound 0.1265 µM) was 1.08, the relative viability (201T; first compound 0.4 µM) was 1.12 and the relative viability (201T; first compound 1.265 µM) was 1.02. It also gave a relative viability (NCI-H2023; first compound 0.04 µM) of 1.04, a relative viability (NCI-H2023; first compound 0.1265 µM) of 1.08 and a relative viability (NCI-H2023; first compound 0.4 µM) of 1.09. For the same compound, the relative viability (NCI-H2023; first compound 1.265 µM) was 0.699, the relative viability (COR-L23; first compound 0.04 µM) was 0.962 and the relative viability (COR-L23; first compound 0.1265 µM) was 1.16. The relative viability (COR-L23; first compound 0.4 µM) was 0.906, the relative viability (COR-L23; first compound 1.265 µM) was 0.622 and the relative viability (NCI-H441; first compound 0.04 µM) was 0.587. The relative viability (NCI-H441; first compound 0.1265 µM) was 0.59, the relative viability (NCI-H441; first compound 0.4 µM) was 0.246 and the relative viability (NCI-H441; first compound 1.265 µM) was 0.289. For the same compound, the relative viability (NCI-H2085; first compound 0.04 µM) was 1.08, the relative viability (NCI-H2085; first compound 0.1265 µM) was 1.07 and the relative viability (NCI-H2085; first compound 0.4 µM) was 1.02. It also gave a relative viability (NCI-H2085; first compound 1.265 µM) of 0.896, a relative viability (NCI-H2405; first compound 0.04 µM) of 0.989 and a relative viability (NCI-H2405; first compound 0.1265 µM) of 1.03. It also gave a relative viability (NCI-H2405; first compound 0.4 µM) of 0.916, a relative viability (NCI-H2405; first compound 1.265 µM) of 0.819 and a relative viability (RERF-LC-KJ; first compound 0.04 µM) of 1.12. It also gave a relative viability (RERF-LC-KJ; first compound 0.1265 µM) of 1.14, a relative viability (RERF-LC-KJ; first compound 0.4 µM) of 1.06 and a relative viability (RERF-LC-KJ; first compound 1.265 µM) of 0.996. For the same compound, the relative viability (NCI-H1734; first compound 0.04 µM) was 1.1, the relative viability (NCI-H1734; first compound 0.1265 µM) was 1.02 and the relative viability (NCI-H1734; first compound 0.4 µM) was 0.83. It also gave a relative viability (NCI-H1734; first compound 1.265 µM) of 0.785.
